In paper PMC9144936, “New Cu^+2 Complexes with N-Sulfonamide Ligands: Potential Antitumor, Antibacterial, and Antioxidant Agents” (Molecules, 2022):

Legend:
HeLa, WM35, HFL1 cells = assay type: cell-based
Description: (§1) Three cell lines were used to determine the cytotoxicity of the complexes, a human cervical carcinoma line (HeLa), a human radical growth phase melanoma cell line (WM35), and a normal fibroblastic epithelial cell line (HFL1) using the MTT method. The cells were exposed to C1 and C2 complexes in different concentrations (50, 25, 12.5, 2, and 0.2 µM) at 24, 48, and 72 h. As positive contro, cisplatin was used.
This means that the cyytotoxicity is given by the complexes and that the chelation of the ligands with the copper ion is essential for the cytotoxicity of the complexes.
The cytotoxicity assays were performed using the MTT assay (3-(4,5-dimethylthiazol-2-yl)-2,5-diphenyl tetrazolium bromide-Sigma Aldrich). Cells were plated at a density of 1 × 10^5 cells/well in 96-well plates for 24 h in normal propagation media. The cultures were then exposed to C1 and C2 complexes in different concentrations (50, 25, 12.5, 2, and 0.2 µM). The complexes were first solubilized in DMSO (Sigma) and then serial dilutions in media were performed until the final concentration of DMSO was less than 1%. […] The cellular viability was determined using the MTT assay at 24, 48, and 72 h, respectively. Formazan particles were solubilized with DMSO and absorbances were determined at 550 nm using a microplate reader (Bio-Rad, Hercules, CA, USA). […]

[1] = SOD mimetic activity, xanthine/xanthine oxidase system, NBT reduction; assay type: biochemical; conditions: pH 7.8, read-out: SOD-like activity IC50 (50% inhibition of NBT reduction)
Description: The SOD-like activities of complexes C1 and C2 were determined by an indirect method using the xanthine/xanthine oxidase system as the source of superoxide radicals. […] The IC50 value for native Cu2Zn2SOD is 0.006 μΜ. Thus, the IC50 values for both complexes are higher than the IC50 value for native Cu2Zn2SOD but are similar to those of complexes with related sulfonamide ligands presented in the literature.
The in vitro SOD mimetic activities of the complexes were assayed using the Oberley and Spitz method with some minor modifications. To generate a reproductible and constant flux of superoxide anions, xanthine (1.5 × 10^−4 M) and xanthine oxidase in 50 mM potassium phosphate buffer, pH = 7.8, were used. The superoxide anions were detected by the reduction of nitro blue tetrazolium (NBT) (5.6 × 10^−5 M) to blue formazane, which was determined spectrophotometrically at 560 nm. Different concentrations of the complexes (50, 25, 12.5, 2, and 0.2 μM) were prepared in 50 mM Tris-HCl buffer, pH = 7.8. For each determination, 0.1 mL complex solution + 0.1 mL xanthine oxidase were added to 0.8 mL of solution containing 0.69 mL potassium phosphate buffer (pH = 7.8), 0.025 mL NBT, and […]. The inhibition percentage of NBT reduction was used to determine the SOD activities of the complexes. The conversion of xanthine to uric acid was measured at 310 nm. The % inhibition of enzyme activity was subtracted from that of NBT. The IC50 values (the concentration of complex needed to yield 50% inhibition of NBT reduction) were determined from plots of % inhibition versus complex concentration. A Specord 200 Plus Spectrophotometer was used to perform the determinations and all reagents were purchased from Sigma-Aldrich.

[2] = tested on: human cervical carcinoma line (HeLa); assay: MTT cytotoxicity assay, HeLa; assay type: cell-based; conditions: HeLa cells
Description: as §1
(§2) To determine the cytotoxicity of the copper complexes, three cell lines were used: a human cervical carcinoma line (HeLa), a human radical growth phase melanoma cell line (WM35), and a normal fibroblastic epithelial cell line (HFL1). The cell lines were obtained from ATCC (American Type Cell Collection, Manassas, VA 20110-2209, USA) and were maintained in DMEM (Sigma-Aldrich, Saint Louis, Missouri, USA) supplemented with 10% fetal bovine serum (Hyclone), 1 mM glutamine (Sigma-Aldrich), and 1% antibiotic antimycotic 100× (Sigma-Aldrich). The cells were cultured at 37 °C in an atmosphere of 5% CO2 and 95% relative humidity.
(§3) The cytotoxicity assays were performed using the MTT assay (3-(4,5-dimethylthiazol-2-yl)-2,5-diphenyl tetrazolium bromide-Sigma Aldrich). Cells were plated at a density of 1 × 10^5 cells/well in 96-well plates for 24 h in normal propagation media. The cultures were then exposed to C1 and C2 complexes in different concentrations (50, 25, 12.5, 2, and 0.2 µM). The complexes were first solubilized in DMSO (Sigma) and then serial dilutions in media were performed until the final concentration of DMSO was less than 1%. As a positive control, cisplatin (Ebewe Pharma Ges.m.b.H. Nfg. KG, Austria) was used, in the same concentrations as the complexes. As a negative control, cell lines cultivated in normal expansion medium with the same amount of DMSO added were used. The cellular viability was determined using the MTT assay at 24, 48, and 72 h, respectively. Formazan particles were solubilized with DMSO and absorbances were determined at 550 nm using a microplate reader (Bio-Rad, Hercules, CA, USA). The cytotoxic activity, expressed as IC50 values representing the complex solution required to inhibit 50% of the cell proliferation, were calculated from the calibration curve by nonlinear regression. Each experiment was carried out in triplicate.

[3] = tested on: normal fibroblastic epithelial cell line (HFL1); assay: MTT cytotoxicity assay, HFL1; assay type: cell-based; conditions: HFL1 cells
Description: as §1, §2, §3

[4] = tested on: human radical growth phase melanoma cell line (WM35); assay: MTT cytotoxicity assay, WM35; assay type: cell-based; conditions: WM35 cells, MTT
Description: as §1, §2, §3

[5] = tested on: Pseudomonas aeruginosa ATCC 27853; assay: Disk diffusion method, P. aeruginosa; assay type: cell-based; parameters: key to Halo Zone Test, class symbol: R = resistant; conditions: 24 h, 37 °C
Excerpt: (§4) The disk diffusion method was used to determine the antibacterial activity of the C1 and C2 copper complexes on four reference microbial strains, two Gram-positive (Staphylococcus aureus and Bacillus cerreus) and two Gram-negative (Escherichia coli and Pseudomonas aeruginosa) strains. The disk diffusion method was used to determine the antibacterial activity of the C1 and C2 copper complexes. The method was adapted for the purposes of the current study, according to the standards developed by the Clinical and Laboratory Standards Institute. Four reference microbial strains, two Gram-positive (Staphylococcus aureus ATCC […] and Bacillus cerreus ATCC 14579) and two Gram-negative (Escherichia coli ATCC 10536 and Pseudomonas aeruginosa ATCC 27853) strains, were used for in vitro susceptibility testing. These reference microbial strains were obtained from the American Type Culture Collection (ATCC, Manassas, VA, USA). As positive controls, Amoxicillin (Oxoid Ltd., Basingstoke, UK) and Norfloxacin (Sigma-Aldrich) were used. For each of the four species, an initial suspension of bacterial cultures was inoculated on nutrient agar plates (Merck KGaA, Darmstadt, Germany), incubated for 24 h at 37 ± 2 °C and resuspended in a physiological saline buffer to a […] concentration (on a 0.5 McFarland scale), and further inoculated on Muëller Hinton agar plates (Merck KGaA, Darmstadt, Germany). […] After inoculation, the medium surface was dried and 8 wells were radially drilled 1.5 cm from the outer edge, 3 cm apart. From aliquot samples of 1 mg/mL of each copper complex dissolved in DMSO and incorporated in sterile liquid medium, 5 μL was placed in each of the 8 wells and left for 30 min to diffuse into the agar plates. The plates were then incubated for 24 h at 37 ± 2 °C. Then, 25 μg Amoxicillin and 5 μg Norfloxacin served as a positive controls, while DMSO 0.75% was used as a negative control. Readings were conducted by measuring the diameter of the inhibition zone (Halo Zone Test, in mm). The germ sensitivity of the copper complexes was estimated by comparing the diameter of the inhibition area to that generated by the regular antibiotics with known inhibition values. […] All tests were triplicated, and the measured diameters of the inhibition zone were expressed (in mm) as mean ± standard deviation.

[6] = tested on: Staphylococcus aureus ATCC 6538P; assay: Disk diffusion method, S. aureus; assay type: cell-based; conditions: Staphylococcus aureus, ATCC6538P; complexes 5 µL of 1 mg/mL; 25 µg Amoxicillin, 5 µg Norfloxacin; 24 h, 37 °C; read-out: Halo Zone Test (diameter of the inhibition zone)
Excerpt: as §4

[7] = tested on: Bacillus cerreus ATCC 14579; assay: Disk diffusion method, B. cerreus; assay type: cell-based; conditions: Bacillus, ATCC14579; complexes 5 µL of 1 mg/mL; 25 µg Amoxicillin, 5 µg Norfloxacin; 24 h, 37 °C; read-out: Halo Zone Test (diameter of the inhibition zone)
Excerpt: as §4

[8] = tested on: Escherichia coli ATCC 10536; assay: Disk diffusion method, E. coli; assay type: cell-based; conditions: Escherichia coli, ATCC10536; complexes 5 µL of 1 mg/mL; 25 µg Amoxicillin, 5 µg Norfloxacin; 24 h, 37 °C; read-out: Halo Zone Test (diameter of the inhibition zone)
Excerpt: as §4

In the case of CCc1nnc(NS(=O)(=O)c2cccc3ccccc23)s1 [HL2, N-(5-ethyl-[1,3,4]–thiadiazole–2-yl)-naphtalenesulfonamide], the “cytotoxicity of the free ligands” value (HeLa, WM35, HFL1 cells) is reported as “no significant cytotoxicity”.
For “Cu2Zn2SOD: native Cu2Zn2 superoxide dismutase enzyme, comparison for SOD-like activity”, the IC50 [1] was 0.006 µM.
Work on N.N.[Cl][Pt][Cl] [Cisplatin, cisplatin, reference compound] yielded an IC50 ([2]; 24 h) of 21.03 ± 0.14 µM, an IC50 ([2]; 48 h) of 6.02 ± 0.19 µM and an IC50 ([2]; 72 h) of 2.39 ± 0.04 µM. The IC50 ([3]; 24 h) was 13.2 ± 0.89 µM, the IC50 ([3]; 48 h) was 3.99 ± 0.22 µM and the IC50 ([3]; 72 h) was 1.18 ± 0.13 µM. For the same molecule, the IC50 ([4]; 24 h) was 26.1 ± 0.43 µM, the IC50 ([4]; 48 h) was 11.15 ± 0.09 µM and the IC50 ([4]; 72 h) was 5.98 ± 0.03 µM.
In the case of CCn1cc(C(=O)O)c(=O)c2cc(F)c(N3CCNCC3)cc21 [Norfloxacin, reference compound], the zone of inhibition at 1000 µg/mL ([5]; Pseudomonas aeruginosa, ATCC27853, complexes 5 µL of 1 mg/mL, 5 µg Norfloxacin, read-out: Halo Zone Test (diameter of the inhibition zone)) is reported as 25 ± 0.24 mm, the zone of inhibition at 1000 µg/mL [6] is reported as 16 ± 0.21 mm and the zone of inhibition at 1000 µg/mL [7] is reported as 18 ± 0.19 mm. For the same molecule, the zone of inhibition at 1000 µg/mL [8] was 20 ± 0.11 mm.
For Cc1ccc(-c2nnc(NS(=O)(=O)c3cccc4ccccc34)s2)cc1 [HL1, N-(5-(4-methylphenyl)-[1,3,4]–thiadiazole–2-yl)-naphtalenesulfonamide], the “cytotoxicity of the free ligands” value (HeLa, WM35, HFL1 cells) was “no significant cytotoxicity”.
With CC1(C)S[C@@H]2[C@H](NC(=O)[C@H](N)c3ccc(O)cc3)C(=O)N2[C@H]1C(=O)O [Amoxicillin, reference compound] the “Halo Zone Test, class symbol” value ([5]; 25 µg Amoxicillin) was “R”, the zone of inhibition at 1000 µg/mL [6] was 19 ± 0.14 mm and the zone of inhibition at 1000 µg/mL [7] was 13 ± 0.22 mm. For the same molecule, the zone of inhibition at 1000 µg/mL [8] was 18 ± 0.09 mm.
